# Data from patent US20210395239A1 (Hoffmann-La Roche Inc., priority 2018, published 2021).
# Target: T1, human TLR8 (Homo sapiens, UniProt Q9NR97)
# T1 construct: host or cells: HEK293 (HEK-Blue hTLR8)
# T1 sequence (Q9NR97 27-1041): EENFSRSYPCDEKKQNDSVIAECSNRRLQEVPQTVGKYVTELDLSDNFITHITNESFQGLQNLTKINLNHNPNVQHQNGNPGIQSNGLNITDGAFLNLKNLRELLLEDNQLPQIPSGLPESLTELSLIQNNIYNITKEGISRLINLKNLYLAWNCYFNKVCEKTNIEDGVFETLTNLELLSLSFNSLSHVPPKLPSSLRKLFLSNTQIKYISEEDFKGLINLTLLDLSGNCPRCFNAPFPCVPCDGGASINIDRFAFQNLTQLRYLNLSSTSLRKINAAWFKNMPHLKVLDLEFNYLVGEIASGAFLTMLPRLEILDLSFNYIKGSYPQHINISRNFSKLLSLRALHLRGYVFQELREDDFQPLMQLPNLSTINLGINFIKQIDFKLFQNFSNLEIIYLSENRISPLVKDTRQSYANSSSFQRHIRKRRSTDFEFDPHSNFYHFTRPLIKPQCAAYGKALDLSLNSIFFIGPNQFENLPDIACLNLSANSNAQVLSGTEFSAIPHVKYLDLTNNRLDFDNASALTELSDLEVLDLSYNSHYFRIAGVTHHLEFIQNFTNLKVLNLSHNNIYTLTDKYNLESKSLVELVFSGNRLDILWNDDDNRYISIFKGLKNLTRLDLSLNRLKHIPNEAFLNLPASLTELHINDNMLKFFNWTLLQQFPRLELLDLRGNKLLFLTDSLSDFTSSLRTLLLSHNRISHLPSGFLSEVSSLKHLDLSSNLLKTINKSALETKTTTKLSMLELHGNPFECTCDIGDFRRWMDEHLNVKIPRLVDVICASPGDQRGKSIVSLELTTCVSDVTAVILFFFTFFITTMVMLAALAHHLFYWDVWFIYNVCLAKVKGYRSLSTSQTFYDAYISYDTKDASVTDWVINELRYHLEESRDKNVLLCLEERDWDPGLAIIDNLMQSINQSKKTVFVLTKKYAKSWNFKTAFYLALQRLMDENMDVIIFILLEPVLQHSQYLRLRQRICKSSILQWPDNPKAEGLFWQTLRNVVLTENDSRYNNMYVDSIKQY
# Assay: HEK293-Blue-hTLR-8 cells assay (SEAP reporter, R848 stimulation)
# Assay type: cell-based
# Conditions: HEK293-Blue-hTLR8 cells, R848, 20 hrs; read-out: HEK/hTLR8 IC50
# Method in brief: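 HEK293-Blue-hTLR8 cells (NF-κB/AP-1-driven SEAP) incubated 20 h at 37° C with serially diluted compound (1% DMSO) plus R848 stimulation. Supernatant SEAP measured with QUANTI-Blue, 2 h at 37° C, absorbance 620–655 nm.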
row,SMILES,IC50 [nM]
1,"Cc1cc(N2CCN(C[C@H]3CN(c4ccc(C#N)c5ncccc45)C[C@@H](C)O3)CC2)nc(N2C[C@H](N)C[C@H](F)C2)n1 (relative stereo) [Example 74, 5-[(2R,6S)-2-methyl-6-[[4-[6-methyl-2-[cis-3-amino-5-fluoro-1-piperidyl]pyrimidin-4-yl]piperazin-1-yl]methyl]morpholin-4-yl]quinoline-8-carbonitrile]",3
2,"Cc1cc(N2CCN(C[C@H]3CN(c4ccc(C#N)c5ncccc45)C[C@@H](C)O3)CC2)nc(N2C[C@H](N)C[C@@H](F)C2)n1 (relative stereo) [Example 75, 5-[(2R,6S)-2-methyl-6-[[4-[6-methyl-2-[trans-3-amino-5-fluoro-1-piperidyl]pyrimidin-4-yl]piperazin-1-yl]methyl]morpholin-4-yl]quinoline-8-carbonitrile]",3
3,"CO[C@H]1CN(c2nc(C)cc(N3CCN(C[C@H]4CN(c5ccc(C#N)c6ncccc56)C[C@@H](C)O4)CC3)n2)C[C@@H]1N (single isomer, unassigned) [Example 69A]",2
4,"CO[C@@H]1CN(c2nc(C)cc(N3CCN(C[C@H]4CN(c5ccc(C#N)c6ncccc56)C[C@@H](C)O4)CC3)n2)C[C@H]1N (single isomer, unassigned) [Example 69B]",2
5,"Cc1cc(N2CCN(C[C@H]3CN(c4ccc(C#N)c5ncccc45)C[C@@H](C)O3)CC2)nc(N2CC[C@@H](F)C(N)C2)n1 (single isomer, unassigned) [Example 84]",7
6,"COC1CN(c2nc(C)cc(N3CCN(C[C@H]4CN(c5ccc(C#N)c6ncccc56)C[C@@H](C)O4)CC3)n2)CC1N (single isomer, unassigned) [Example 88]",2
7,"COC1CNCC1Nc1nc(C)cc(N2CCN(C[C@H]3CN(c4ccc(C#N)c5ncccc45)C[C@@H](C)O3)CC2)n1 (stereo in doubt) [Example 70, 5-[(2S,6R)-2-[[4-[2-[[(3R,4R)-4-methoxypyrrolidin-3-yl]amino]-6-methyl-pyrimidin-4-yl]piperazin-1-yl]methyl]-6-methyl-morpholin-4-yl]quinoline-8-carbonitrile]",12
8,"Cc1cc(N2CCN(C[C@H]3CN(c4ccc(C#N)c5ncccc45)C[C@@H](C)O3)CC2)nc(NC2CNCC2F)n1 (stereo in doubt) [Example 73, 5-[(2S,6R)-2-[[4-[2-[[(3S,4R)-4-fluoropyrrolidin-3-yl]amino]-6-methyl-pyrimidin-4-yl]piperazin-1-yl]methyl]-6-methyl-morpholin-4-yl]quinoline-8-carbonitrile]",17
9,"Cc1cc(N2CCN(C[C@H]3CN(c4ccc(C#N)c5ncccc45)C[C@@H](C)O3)CC2)nc(N2CC[C@@H](N)C(F)C2)n1 (stereo in doubt) [Example 82, 5-[(2S,6R)-2-[[4-[2-[(3R,4R)-4-amino-3-fluoro-1-piperidyl]-6-methyl-pyrimidin-4-yl]piperazin-1-yl]methyl]-6-methyl-morpholin-4-yl]quinoline-8-carbonitrile]",1
10,"CO[C@H]1CN(c2nc(C)cc(N3CCN(C[C@H]4CN(c5ccc(C#N)c6ncccc56)C[C@@H](C)O4)CC3)n2)CCC1N (stereo in doubt) [Example 90, 5-[(2S,6R)-2-[[4-[2-[(3S,4S)-4-amino-3-methoxy-1-piperidyl]-6-methyl-pyrimidin-4-yl]piperazin-1-yl]methyl]-6-methyl-morpholin-4-yl]quinoline-8-carbonitrile]",2
11,"Cc1cc(N2CCN(C[C@H]3CN(c4ccc(C#N)c5ncccc45)C[C@@H](C)O3)CC2)nc(N[C@@H]2CNC[C@@H]2F)n1 [Example 71, 5-[(2S,6R)-2-[[4-[2-[[(3R,4S)-4-fluoropyrrolidin-3-yl]amino]-6-methyl-pyrimidin-4-yl]piperazin-1-yl]methyl]-6-methyl-morpholin-4-yl]quinoline-8-carbonitrile]",15
12,"CO[C@@H]1CN(c2nc(C)cc(N3CCN(C[C@H]4CN(c5ccc(C#N)c6ncccc56)C[C@@H](C)O4)CC3)n2)C[C@@H]1N [Example 72, 5-[(2S,6R)-2-[[4-[2-[(3S,4R)-3-amino-4-methoxy-pyrrolidin-1-yl]-6-methyl-pyrimidin-4-yl]piperazin-1-yl]methyl]-6-methyl-morpholin-4-yl]quinoline-8-carbonitrile]",3
13,"Cc1cc(N2CCN(C[C@H]3CN(c4ccc(C#N)c5ncccc45)C[C@@H](C)O3)CC2)nc(N[C@@H]2CNC[C@H]2F)n1 [Example 76, 5-[(2S,6R)-2-[[4-[2-[[(3R,4R)-4-fluoropyrrolidin-3-yl]amino]-6-methyl-pyrimidin-4-yl]piperazin-1-yl]methyl]-6-methyl-morpholin-4-yl]quinoline-8-carbonitrile]",3
14,"Cc1cc(N2CCN(C[C@H]3CN(c4ccc(C#N)c5ncccc45)C[C@@H](C)O3)CC2)nc(N2C[C@@H](N)C[C@@H](F)C2)n1 [Example 77, 5-[(2S,6R)-2-[[4-[2-[(3S,5R)-3-amino-5-fluoro-1-piperidyl]-6-methyl-pyrimidin-4-yl]piperazin-1-yl]methyl]-6-methyl-morpholin-4-yl]quinoline-8-carbonitrile]",2
15,"Cc1cc(N2CCN(C[C@H]3CN(c4ccc(C#N)c5ncccc45)C[C@@H](C)O3)CC2)nc(N2CC[C@@H](N)[C@@H](F)C2)n1 [Example 78, 5-[(2S,6R)-2-[[4-[2-[(3S,4R)-4-amino-3-fluoro-1-piperidyl]-6-methyl-pyrimidin-4-yl]piperazin-1-yl]methyl]-6-methyl-morpholin-4-yl]quinoline-8-carbonitrile]",1
16,"Cc1cc(N2CCN(C[C@H]3CN(c4ccc(C#N)c5ncccc45)C[C@@H](C)O3)CC2)nc(N2C[C@@H](N)[C@H](F)C2)n1 [Example 79, 5-[(2S,6R)-2-[[4-[2-[(3R,4R)-3-amino-4-fluoro-pyrrolidin-1-yl]-6-methyl-pyrimidin-4-yl]piperazin-1-yl]methyl]-6-methyl-morpholin-4-yl]quinoline-8-carbonitrile]",2
17,"Cc1cc(N2CCN(C[C@H]3CN(c4ccc(C#N)c5ncccc45)C[C@@H](C)O3)CC2)nc(N2CC(N)CC(F)(F)C2)n1 (stereo partly drawn) [Example 80, 5-[(2S,6R)-2-[[4-[2-(5-amino-3,3-difluoro-1-piperidyl)-6-methyl-pyrimidin-4-yl]piperazin-1-yl]methyl]-6-methyl-morpholin-4-yl]quinoline-8-carbonitrile]",6
18,"Cc1cc(N2CCN(C[C@H]3CN(c4ccc(C#N)c5ncccc45)C[C@@H](C)O3)CC2)nc(N2CCNC(C(C)(C)O)C2)n1 (stereo partly drawn) [Example 81, 5-[(2S,6R)-2-[[4-[2-[3-(1-hydroxy-1-methyl-ethyl)piperazin-1-yl]-6-methyl-pyrimidin-4-yl]piperazin-1-yl]methyl]-6-methyl-morpholin-4-yl]quinoline-8-carbonitrile]",2
19,"Cc1cc(N2CCN(C[C@H]3CN(c4ccc(C#N)c5ncccc45)C[C@@H](C)O3)CC2)nc(N2CC[C@@H](F)[C@@H](N)C2)n1 [Example 83, 5-[(2R,6S)-2-methyl-6-[[4-[6-methyl-2-[(3S,4R)-3-amino-4-fluoro-1-piperidyl]-pyrimidin-4-yl]piperazin-1-yl]methyl]morpholin-4-yl]quinoline-8-carbonitrile]",3
20,"Cc1cc(N2CCN(C[C@H]3CN(c4ccc(C#N)c5ncccc45)C[C@@H](C)O3)CC2)nc(N2CCC(N)C(F)(F)C2)n1 (stereo partly drawn) [Example 86, 5-[(2S,6R)-2-[[4-[2-(4-amino-3,3-difluoro-1-piperidyl)-6-methyl-pyrimidin-4-yl]piperazin-1-yl]methyl]-6-methyl-morpholin-4-yl]quinoline-8-carbonitrile]",6
21,"Cc1cc(N2CCN(C[C@H]3CN(c4ccc(C#N)c5ncccc45)C[C@@H](C)O3)CC2)nc(N2CC(N)C2)n1 [Example 87, 5-[(2S,6R)-2-[[4-[2-(3-aminoazetidin-1-yl)-6-methyl-pyrimidin-4-yl]piperazin-1-yl]methyl]-6-methyl-morpholin-4-yl]quinoline-8-carbonitrile]",2
22,"C[C@@H]1CN(c2ccc(C#N)c3ncccc23)C[C@H](CN2CCN(c3ccccc3C3CNCCO3)CC2)O1 (stereo partly drawn) [Example 89, 5-[(2R,6S)-2-methyl-6-[[4-(2-morpholin-2-ylphenyl)piperazin-1-yl]methyl]morpholin-4-yl]quinoline-8-carbonitrile]",29
